Source: patent US20030232851A1, “Viral treatment” (The Procter & Gamble Company, priority 1999, published 2003)
Values after ≈ are worked out from the molar mass of the structure shown. Values joined by “and” are separate entries in the source; they are usually repeats but may differ in a detail not shown here. Equal entries are not always repeated.

How the values were obtained:
HIV-1 integrase = HIV-1 integrase (Human immunodeficiency virus type 1 group M subtype B, UniProt P04585); assay: HIV-1 integrase inhibition assay; format: biochemical; set-up: HIV-1 Integrase Inhibition, sample reading / HIV-1 Integrase Inhibition, mean: unit not given here; conditions: for HIV-1 Integrase Inhibition, sample reading: sample 1, sample 2, hydrochloride salt
From the text: A biochemical integrase assay described by Craigie et at (HIV, vol. 2: A practical Approach) Biochemistry, Molecular Biology and Drug Discovery, Ed. J. Kam 1995) to screen agents for their ability to inhibit HIV-1 integrase. In this system, a kinased oligonucleotide serves as the target of 3′ processing and the subsequent strand transfer reaction. The 3′ processing reaction involves the removal of 2 nucleotides from the 3′ ends of the substrate and this is followed by the strand transfer reaction in which the 3′ ends are joined to the exposed 5′ ends. The 20 μl reaction mixture contains 25 mM MOPS (pH 7.2), […] BSA, 10 mM β-mercaptoethanol, 10% glycerol, 7.5 mM MnCl2, 25 nM (7 ng) substrate (Oligo's Etc., Wilsonville, Oreg.) and 200 nM (128 ng) integrase (NIAID AIDS Research and Reference Reagent Program, Bethesda, Md.). The reaction proceeds at 37° C. for 1-2 hours and is terminated by the addition of 20 μl of sequencing stop solution (JSB Amersham, Arlington Heights, Ill.). The reaction products are visualized by autoradiography following electrophoresis in 15% polyacrylamide 6M Urea gel. The substrate migrates as a 30 mer, the product of 3′ processing migrates as an N-2 band and the strand transfer products migrate more slowly at various sizes larger than the substrate.

HIV-1 protease = target: T1, HIV-1 protease (Human immunodeficiency virus type 1 group M subtype B, UniProt P04585); assay: Protease inhibition assay (fluorometric); format: biochemical; conditions: for Protease Inhibition, sample reading: sample 1, sample 2, hydrochloride salt
T1 construct: precludes use of the fluorometric HIV-1 protease assay; purchased Bachem
Procedure: Protease inhibition is evaluated using a fluorometric method. Enzyme (Bachem) is diluted to 116 μgm/ml in 50 mM NaOAC, 5 mM DTT, 2 mM EDTA, 10% glycerol (pH 5.0) and stored as 10 μl samples at −20° C., HIV protease substrates I (Molecular Probes) is diluted to a working concentration of 0.32 nmoles/μl. Enzyme (20 μl) and drug (20 μl) are added to each well of a microtiter plate as appropriate. Positive and negative controls are evaluated in parallel. Fluorescence is quantitated on Labsystems Fluroskan II using 355 nm/460 nm at 37° C. at time zero and at 30 minute intervals for 2 hours. In instances where autofluorescence precludes use of the fluorometric HIV-1 protease assay or confirmation of a result is required, an HPLC based protease assay can be employed.

HEPG22.2.15 = assay: Hepatitis B test: toxicity values; format: cell-based
hepatitis B, HEPG22.2.15 = assay: In vitro virus production test of hepatitis B, DNA copy number; format: cell-based
vero cells = system: vero cells; set-up: unit not given beside the values; conditions: African green monkey
Cryptococcus neoformans = assay: Anti-fungal activity (NCCLS M-27A based), Cryptococcus neoformans; format: cell-based
Procedure: (§1) It was active against cryptococcus neoformans and curvularai lunata. The cidal activity for the C. neoformans is high enough that it is clear […] against this yeast. This test was conducted using a method based upon NCCLS reference method M-27A published in 1997. Solvent, medium and growth controls were set-up with the tests. Once these were read to validate the test performance, the QC fungi were read to insure they had expected results. These steps validated the test system. DMSO was used as a drug-chemical solvent. […] The 90% cut-off is necessary for azoles, which are static and not cidal. The FMC or cidal level was determined by sub-culturing a sample from each tube showing no growth.

Curvularia lunata = assay: Anti-fungal activity (NCCLS M-27A based), Curvularia lunata; format: cell-based; conditions: growth inhibited or reduced at least 90%
Procedure: as §1

## Cl.c1csc(-c2nc3ncccc3[nH]2)c1 [2-(2-thienyl)-imidazolo [4,5-b]pyridine hydrochloride salt]
HIV-1 integrase
  EC50: > 421 µM
HIV-1 integrase; 0.1 μg/ml
  HIV-1 Integrase Inhibition, mean: 9144
  HIV-1 Integrase Inhibition, sample reading: 9338.5 and 8948.8
HIV-1 integrase; 1 μg/ml
  HIV-1 Integrase Inhibition, mean: 12194
  HIV-1 Integrase Inhibition, sample reading: 11838.2 and 12550.7
HIV-1 integrase; 10 μg/ml
  HIV-1 Integrase Inhibition, mean: 12299
  HIV-1 Integrase Inhibition, sample reading: 10848.3 and 13750.3
HIV-1 integrase; 100 μg/ml
  HIV-1 Integrase Inhibition, mean: 10570
  HIV-1 Integrase Inhibition, sample reading: 10212.5 and 10928.4
HIV-1 protease; 1 nM
  Protease Inhibition, mean: 26.3
  Protease Inhibition, sample reading: 29.9 and 22.6
HIV-1 protease; 10 nM
  Protease Inhibition, mean: 35.0
  Protease Inhibition, sample reading: 36.0 and 34.1
HIV-1 protease; 100 nM
  Protease Inhibition, mean: 84.8
  Protease Inhibition, sample reading: 85.4 and 84.2
HIV-1 protease; 1000 nM
  Protease Inhibition, mean: 247.3
  Protease Inhibition, sample reading: 245.7 and 248.8

## Nc1ccn([C@@H]2CS[C@H](CO)O2)c(=O)n1 [3TC, lamivudine]
HEPG22.2.15; 0.0032 μg/ml
  Toxicity Values, % cell control: 90.8%
  Toxicity Values, mean: 1.137
  Toxicity Values, samples 1-3: 1.009 and 1.173 and 1.230
HEPG22.2.15; 0.01 μg/ml
  Toxicity Values, % cell control: 84.6%
  Toxicity Values, mean: 1.060
  Toxicity Values, samples 1-3: 1.001 and 1.081 and 1.099
HEPG22.2.15; 0.032 μg/ml
  Toxicity Values, % cell control: 94.3%
  Toxicity Values, mean: 1.181
  Toxicity Values, samples 1-3: 1.074 and 1.153 and 1.316
HEPG22.2.15; 0.1 μg/ml
  Toxicity Values, mean: 1.190
  Toxicity Values, samples 1-3: 1.151 and 1.220 and 1.200
HEPG22.2.15; 0.32 μg/ml
  Toxicity Values, % cell control: 93.6%
  Toxicity Values, mean: 1.172
  Toxicity Values, samples 1-3: 1.082 and 1.207 and 1.227
HEPG22.2.15; 1 μg/ml
  Toxicity Values, % cell control: 106.5%
  Toxicity Values, mean: 1.334
  Toxicity Values, samples 1-3: 1.423 and 1.256 and 1.322
HEPG22.2.15; first experiment
  TC50: > 1 µg/mL
HEPG22.2.15; replicate experiment
  TC50: > 1 µg/mL
Hepatitis B, HEPG22.2.15; 0.0032 μg/ml
  DNA Copy Number, % virus control: 97.8%
  DNA Copy Number, mean: 280.4 per 3 μl
  DNA Copy Number, samples 1-3: 265.4 per 3 μl and 328.0 per 3 μl and 247.9 per 3 μl
Hepatitis B, HEPG22.2.15; 0.01 μg/ml
  DNA Copy Number, % virus control: 87.8%
  DNA Copy Number, mean: 251.7 per 3 μl
  DNA Copy Number, samples 1-3: 286.1 per 3 μl and 276.7 per 3 μl
Hepatitis B, HEPG22.2.15; 0.032 μg/ml
  DNA Copy Number, % virus control: 80.4%
  DNA Copy Number, mean: 230.4 per 3 μl
  DNA Copy Number, samples 1-3: 243.2 per 3 μl and 255.3 per 3 μl
Hepatitis B, HEPG22.2.15; 0.1 μg/ml
  DNA Copy Number, % virus control: 24.2%
  DNA Copy Number, mean: 69.4 per 3 μl
  DNA Copy Number, samples 1-3: 73.0 per 3 μl and 74.8 per 3 μl and 60.5 per 3 μl
Hepatitis B, HEPG22.2.15; 0.32 μg/ml
  DNA Copy Number, % virus control: 13.1%
  DNA Copy Number, mean: 46.1 per 3 μl
  DNA Copy Number, samples 1-3: 36.7 per 3 μl and 45.1 per 3 μl and 56.5 per 3 μl
Hepatitis B, HEPG22.2.15; 1 μg/ml
  DNA Copy Number, % virus control: 1.4%
  DNA Copy Number, mean: 4.0 per 3 μl
Hepatitis B, HEPG22.2.15; HepG2 2.2.15, first experiment
  IC50: 0.089 µg/mL (≈ 0.388 µM)
Hepatitis B, HEPG22.2.15; HepG2 2.2.15, replicate experiment
  IC50: 0.021 µg/mL (≈ 0.0916 µM)

## Nc1nc2c(ncn2COCCO)c(=O)[nH]1 [Acyclovir]
Vero cells
  TC50: > 1

## C[C@@H]1[C@H](O)[C@@H](C)/C=C/C=C/C=C/C=C/C=C/C=C/C=C/[C@H](O[C@@H]2O[C@H](C)[C@@H](O)[C@H](N)[C@@H]2O)C[C@@H]2O[C@](O)(C[C@@H](O)C[C@@H](O)[C@H](O)CC[C@@H](O)C[C@@H](O)CC(=O)O[C@H]1C)C[C@H](O)[C@H]2C(=O)O [AmB, amphotericin B]
Cryptococcus neoformans; cidal level
  MFC data: 1 µg/mL (≈ 1.08 µM)
Cryptococcus neoformans; growth inhibited or reduced at least 90%
  MIC data: 0.25 µg/mL (≈ 0.271 µM)
Curvularia lunata
  MIC data: 0.03 µg/mL (≈ 0.0325 µM)
